From patent US7569572B2, “Pyrazolo[4,3-D]pyrimidines” (Pfizer Inc, priority 2004, dated 2009)
Where a name gives a salt, the structure may show the parent alone.

Target: T1, human platelet PDE5 (Homo sapiens, UniProt O76074)
T1 construct: utilizes PDE5 isolated from human platelets; from tissue; host or cells: human platelets
Assay: Method A: PDE-5 Inhibition Scintillation Proximity Assay (SPA) - Human Platelet
Type: biochemical
Conditions: cGMP substrate 500 nM, PDE5 isolated from human platelets
Source text: Method A: PDE-5 Inhibition Scintillation Proximity Assay (SPA)—Human Platelet
The assay measures the inhibition of human platelet PDE5 enzyme activity by a test compound in an in vitro assay that utilizes PDE5 isolated from human platelets. The PDE5 enzyme can be isolated from platelets essentially by a modification of the method of Thompson, W J et al.; Biochemistry 18(23), 5228-5237, 1979, as described by Ballard S A et al.; J. Urology 159(6), 2164-2171, 1998. PDE5 catalyzes the hydrolysis of [^3H]cGMP to the 5′ nucleotide [^3H]GMP. [^3H]GMP binds to yttrium silicate SPA beads and is detected by scintillation counting. […] The inhibition of enzyme activity is calculated relative to total PDE5 activity of uninhibited controls.
PDE5 IC50 Assay: 96-Well Microtiter Plate Format
Buffer A: 20 mM Tris-HCl, 5 mM MgCl2, pH 7.4
Buffer B: 2 mg/ml BSA in Buffer A (enzyme buffer)
cGMP substrate: Final concentration of 500 nM in assay
The amount of ^3H-labeled substrate added depends upon the specific activity of [^3H]cGMP, and it is diluted with a 10 mM stock of cold cGMP in Buffer A for a final substrate concentration of 500 nM in the assay.
PDE enzyme: Prepared in Buffer B. The dilution factor is determined by enzyme activity.
SPA beads: 20 mg/ml suspension prepared in dH2O.
Stocks of standard and test compounds are prepared at 5 mM in 100% DMSO. Compounds are serially diluted in separate dilution plates using a 10-point ½ log dilution format. 2 μl of the compound dilutions are added in duplicate to the wells of the assay plate; 2 μl of 100% DMSO are added to designated control wells. 25 μl of Buffer A are added to all wells. 25 μl of Buffer B are added to the negative control wells, and 25 μl of enzyme are added to the remaining wells. 50 μl of substrate are added to each well. Plates are sealed and incubated for 60 minutes on a plate shaker at 30 C. 50 μl of SPA beads are added to stop the reaction. The plates are again sealed and shaken for 15 minutes to allow the beads to bind the GMP product. The beads are allowed to settle for 30 minutes and then read on a NXT TopCount. Data is analyzed with the ECADA application. In this analysis, % inhibition is calculated: (mean maximum−compound value/(mean maximum−mean minimum)×100. IC50s are determined from sigmoid dose-response curves of enzyme activity vs compound concentration.

| Compound | IC50 [nM] |
| --- | --- |
| CCOCCn1nc(CNC(=O)CN(C)C)c2nc(N(C)C)nc(Nc3cc(C)ccn3)c21 [Example 1, 2-Dimethylamino-N-[5-dimethylamino-1-(2-ethoxyethyl)-7-(4-methylpyridin-2-ylamino)-1H-pyrazolo[4,3-d]pyrimidin-3-ylmethyl]acetamide] | 1.12 |
| CCOCCn1nc(CNS(C)(=O)=O)c2nc(N(C)C)nc(Nc3cc(C)ccn3)c21 [Example 2, N-[5-dimethylamino-1-(2-ethoxyethyl)-7-(4-methylpyridin-2-ylamino)-1H-pyrazolo[4,3-d]pyrimidin-3-ylmethyl]methanesulfonamide] | 1.25 |
| CCNc1nc(Nc2cc(C)ccn2)c2c(n1)c(CNS(C)(=O)=O)nn2CCOCC [Example 3] | 1.1 |
| CCOCCn1nc(CNC(=O)CO)c2nc(N(C)C)nc(Nc3cc(C)ccn3)c21 [Example 4, N-[5-dimethylamino-1-(2-ethoxyethyl)-7-(4-methylpyridin-2-ylamino)-1H-pyrazolo[4,3-d]pyrimidin-3-ylmethyl]-2-hydroxyacetamide] | 0.77 |
| CCNc1nc(Nc2cc(C)ccn2)c2c(n1)c(CNC(=O)CO)nn2CCOCC [Example 5] | 0.58 |
| CCOCCn1nc(CNC(C)=O)c2nc(N(C)C)nc(Nc3cc(C)ccn3)c21 [Example 6, N-[5-dimethylamino-1-(2-ethoxyethyl)-7-(4-methylpyridin-2-ylamino)-1H-pyrazolo[4,3-d]pyrimidin-3-ylmethyl]acetamide] | 0.39 |
| CCOCCn1nc(CNC(C)=O)c2nc(NC)nc(Nc3cc(C)ccn3)c21 [Example 7] | 9 |
| CCNc1nc(Nc2cc(C)ccn2)c2c(n1)c(CNC(C)=O)nn2CCOCC [Example 8, N-[1-(2-ethoxyethyl)-5-ethylamino-7-(4-methylpyridin-2-ylamino)-1H-pyrazolo[4,3-d]pyrimidin-3-ylmethyl]acetamide] | 0.59 |
| CCOCCn1nc(CNC(=O)CC)c2nc(N(C)C)nc(Nc3cc(C)ccn3)c21 [Example 9, N-[5-dimethylamino-1-(2-ethoxyethyl)-7-(4-methylpyridin-2-ylamino)-1H-pyrazolo[4,3-d]pyrimidin-3-ylmethyl]propionamide] | 0.33 |
| CCOCCn1nc(CNC(=O)CC)c2nc(NC)nc(Nc3cc(C)ccn3)c21 [Example 10] | 2.5 |
| CCNc1nc(Nc2cc(C)ccn2)c2c(n1)c(CNC(=O)CC)nn2CCOCC [Example 11, N-[1-(2-ethoxyethyl)-5-ethylamino-7-(4-methylpyridin-2-ylamino)-1H-pyrazolo[4,3-d]pyrimidin-3-ylmethyl]propionamide] | 0.53 |
| CCOCCn1nc(CNC)c2nc(N(C)C)nc(Nc3cc(C)ccn3)c21 [Example 12] | 4.5 |
| CCOCCn1nc(CN(C)C(C)=O)c2nc(N(C)C)nc(Nc3cc(C)ccn3)c21 [Example 13] | 0.4 |
| CCOCCn1nc(CN(C)C(C)=O)c2nc(NC)nc(Nc3cc(C)ccn3)c21 [Example 14] | 5.5 |
| CCNc1nc(Nc2cc(C)ccn2)c2c(n1)c(CN(C)C(C)=O)nn2CCOCC [Example 15, N-[1-(2-ethoxyethyl)-5-ethylamino-7-(4-methylpyridin-2-ylamino)-1H-pyrazolo[4,3-d]pyrimidin-3-ylmethyl]-N-methylacetamide] | 0.48 |
| CCOCCn1nc(CN(C)C(C)=O)c2nc(N(C)C)nc(Nc3ccncn3)c21 [Example 16, N-[5-Dimethylamino-1-(2-ethoxyethyl)-7-(pyrimidin-4-ylamino)-1H-pyrazolo[4,3-d]pyrimidin-3-ylmethyl]-N-methylacetamide] | 5.9 |
| CCOCCn1nc(CNC)c2nc(N(C)C)nc(Nc3cnccn3)c21 [Example 17, 1-(2-ethoxyethyl)-N^5,N^5-dimethyl-3-(methylaminomethyl)-N^7-(pyrazin-2-yl)-1H-pyrazolo[4,3-d]pyrimidine-5,7-diamine hydrochloride] | > 100 |
| CCOCCn1nc(CN2CCN(C)CC2)c2nc(N(C)C)nc(Nc3cc(C)ccn3)c21 [Example 18, 1-(2-Ethoxyethyl)-N^5,N^5-dimethyl-3-[(4-methylpiperazin-1-yl)methyl]-N^7-(4-methylpyridin-2-yl)-1H-pyrazolo[4,3-d]pyrimidine-5,7-diamine hydrochloride] | 2.3 |
| CCOCCn1nc(CN2CCC[C@@H]2COC)c2nc(N(C)C)nc(Nc3cc(C)ccn3)c21 [Example 19] | 4.3 |

| Compound | IC50 [nM] |
| --- | --- |
| CCOCCn1nc(CN2CCC[C@H]2COC)c2nc(N(C)C)nc(Nc3cc(C)ccn3)c21 [Example 20] | 2.1 |
| CCOCCn1nc(CN2CC[C@H](OC)C2)c2nc(N(C)C)nc(Nc3cc(C)ccn3)c21 [Example 21] | 2 |
| CCOCCn1nc(CN2CC[C@@H](OC)C2)c2nc(N(C)C)nc(Nc3cc(C)ccn3)c21 [Example 22] | 3.2 |
| CCCNCc1nn(CCOCC)c2c(Nc3cc(C)ccn3)nc(N(C)C)nc12 [Example 24] | 5.8 |
| CCOCCn1nc(CN2CCCC2)c2nc(N(C)C)nc(Nc3cc(C)ccn3)c21 [Example 25] | 5.2 |
| CCNCc1nn(CCOCC)c2c(Nc3ccc(C)cn3)nc(N(C)C)nc12 [Example 26] | 3.4 |
| CCOCCn1nc(CN(C)C)c2nc(N(C)C)nc(Nc3cc(C)ccn3)c21 [Example 28] | 6.9 |
| CCOCCn1nc(CNCCOC)c2nc(N(C)C)nc(Nc3cc(C)ccn3)c21 [Example 29] | 3.3 |
| CCOCCn1nc(CN2CCOCC2)c2nc(N(C)C)nc(Nc3cc(C)ccn3)c21 [Example 30, 1-(2-ethoxyethyl)-N^5,N^5-dimethyl-3-[(4-morpholino)methyl]-N^7-(4-methylpyridin-2-yl)-1H-pyrazolo[4,3-d]pyrimidine-5,7-diamine] | 1.06 |
| CCNCc1nn(CCOCC)c2c(Nc3cc(C)ccn3)nc(N(C)C)nc12 [Example 31, 1-(2-ethoxyethyl)-3-(ethylaminomethyl)-N^5,N^5-dimethyl-N^7-(4-methylpyridin-2-yl)-1H-pyrazolo[4,3-d]pyrimidine-5,7-diamine] | 3.4 |
| CCNCc1nn(CCOCC)c2c(Nc3ccncn3)nc(N(C)C)nc12 [Example 32, 1-(2-ethoxyethyl)-3-(ethylaminomethyl)-N^5,N^5-dimethyl-N^7-(pyrimidin-4-yl)-1H-pyrazolo[4,3-d]pyrimidine-5,7-diamine] | > 100 |
| CCOCCn1nc(CNCCOC)c2nc(N(C)C)nc(Nc3ccncn3)c21 [Example 33, 1-(2-ethoxyethyl)-3-[(2-methoxyethylamino)methyl]-N^5,N^5-dimethyl-N^7-pyrimidin-4-yl-1H-pyrazolo[4,3-d]pyrimidine-5,7-diamine] | > 100 |
| CCOCCn1nc(CN(CC)CC)c2nc(N(C)C)nc(Nc3ccncn3)c21 [Example 34, 3-(Diethylaminomethyl)-1-(2-ethoxyethyl)-N^5,N^5-dimethyl-N^7-(pyrimidin-4-yl)-1H-pyrazolo[4,3-d]pyrimidine-5,7-diamine] | 23.6 |
| CCOCCn1nc(CNC)c2nc(N(C)C)nc(Nc3ccncn3)c21 [Example 35, 1-(2-ethoxyethyl)-N^5,N^5-dimethyl-3-(methylaminomethyl)-N^7-pyrimidin-4-yl-1H-pyrazolo[4,3-d]pyrimidine-5,7-diamine hydrochloride] | > 100 |
| CCOCCn1nc(CNC)c2nc(N(C)CCO)nc(Nc3cc(C)ccn3)c21 [Example 36, 2-{[1-(2-ethoxyethyl)-3-(methylaminomethyl)-7-(4-methylpyridin-2-ylamino)-1H-pyrazolo[4,3-d]pyrimidin-5-yl]methylamino}ethanol hydrochloride] | 188 |
| CCOCCn1nc(CNC)c2nc(N(C)CCOC)nc(Nc3cc(C)ccn3)c21 [Example 37, 1-(2-ethoxyethyl)-N^5-(2-methoxyethyl)-N^5-methyl-3-(methylaminomethyl)-N^7-(4-methylpyridin-2-yl)-1H-pyrazolo[4,3-d]pyrimidine-5,7-diamine hydrochloride] | 4.4 |
| CCCN(Cc1nn(CCOCC)c2c(Nc3cc(C)ccn3)nc(N(C)C)nc12)C(C)=O [Example 39, N-[5-Dimethylamino-1-(2-ethoxyethyl)-7-(4-methylpyridin-2-ylamino)-1H-pyrazolo[4,3-d]pyrimidin-3-ylmethyl]-N-propylacetamide] | 1.53 |
| CCOCCn1nc(CN2CCNCC2)c2nc(N(C)C)nc(Nc3cc(C)ccn3)c21 [Example 40, 1-(2-ethoxyethyl)-N^5,N^5-dimethyl-N^7-(4-methylpyridin-2-yl)-3-(piperazin-1-ylmethyl)-1H-pyrazolo[4,3-d]pyrimidine-5,7-diamine hydrochloride] | 5.8 |
